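1) Cells in 96-well plates. 2) Compound, 48 h, 5 concentrations. 3) Linear interpolation between surrounding doses. 4) Unreached endpoint = highest concentration. At the GI50, growth is halved.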 Calls of active or inactive are those of the source. Rule as the data show it: active = GI50 up to about 1.1 µM and inactive = higher.
Legend:
Assay in all cases: NCI tumour cell line growth inhibition, 48 h
[1] = tested on: A498
[2] = tested on: SK-MEL-5
[3] = tested on: CCRF-CEM
[4] = tested on: MDA-N
[5] = tested on: MCF7
[6] = tested on: MDA-MB-435
[7] = tested on: T47D
[8] = tested on: OVCAR-8
[9] = tested on: HCC 2998
[10] = tested on: BT-549
[11] = tested on: LOX IMVI
[12] = tested on: NCI-H522
[13] = tested on: UACC-62
[14] = tested on: K562
[15] = tested on: OVCAR-4
[16] = tested on: HCT-116
[17] = tested on: SN12C
[18] = tested on: CAKI-1
[19] = tested on: SF-295
[20] = tested on: A549
[21] = tested on: SK-MEL-28
[22] = tested on: NCI-H460
[23] = tested on: SK-MEL-2
[24] = tested on: SR
[25] = tested on: SF-268
[26] = tested on: RPMI-8226
[27] = tested on: MOLT-4
[28] = tested on: DU-145
[29] = tested on: SNB-75
[30] = tested on: SW-620
[31] = tested on: ACHN
[32] = tested on: HOP-62
[33] = tested on: IGROV-1
[34] = tested on: OVCAR-5
[35] = tested on: UACC-257
[36] = tested on: SF-539
[37] = tested on: Malme-3M
[38] = tested on: Hs-578T
[39] = tested on: U-251
[40] = tested on: M14
[41] = tested on: EKVX
[42] = tested on: COLO 205
[43] = tested on: HL-60
[44] = tested on: TK-10
[45] = tested on: 786-0
[46] = tested on: SK-OV-3
[47] = tested on: HCT-15
[48] = tested on: HT-29
[49] = tested on: OVCAR-3
[50] = tested on: HOP-92
[51] = tested on: SNB-19
[52] = tested on: MDA-MB-231
[53] = tested on: NCI-H23
[54] = tested on: NCI-H226
[55] = tested on: PC-3
[56] = tested on: KM12
[57] = tested on: NCI/ADR-RES
[58] = tested on: RXF 393
[59] = tested on: UO-31

Cc1c(Cl)cccc1NC(=O)/C=C/c1ccccc1
GI50 [1]: > 100 µM (inactive) | GI50 [2]: > 100 µM (inactive) | GI50 [3]: > 100 µM (inactive) | GI50 [4]: > 100 µM (inactive) | GI50 [5]: > 100 µM (inactive) | GI50 [6]: > 100 µM (inactive) | GI50 [7]: > 100 µM (inactive) | GI50 [8]: 38 µM (inactive) | GI50 [9]: > 100 µM (inactive) | GI50 [10]: > 100 µM (inactive) | GI50 [11]: > 100 µM (inactive) | GI50 [12]: > 100 µM (inactive) | GI50 [13]: > 100 µM (inactive) | GI50 [14]: > 100 µM (inactive) | GI50 [15]: > 100 µM (inactive) | GI50 [16]: > 100 µM (inactive) | GI50 [17]: > 100 µM (inactive) | GI50 [18]: 16.3 µM (inactive) | GI50 [19]: > 100 µM (inactive) | GI50 [20]: > 100 µM (inactive) | GI50 [21]: 88.5 µM (inactive) | GI50 [22]: > 100 µM (inactive) | GI50 [23]: > 100 µM (inactive) | GI50 [24]: 50.7 µM (inactive) | GI50 [25]: 74.1 µM (inactive) | GI50 [26]: 97.9 µM (inactive) | GI50 [27]: > 100 µM (inactive) | GI50 [28]: > 100 µM (inactive) | GI50 [29]: 22.8 µM (inactive) | GI50 [30]: > 100 µM (inactive) | GI50 [31]: 89.5 µM (inactive) | GI50 [32]: > 100 µM (inactive) | GI50 [33]: > 100 µM (inactive) | GI50 [34]: > 100 µM (inactive) | GI50 [35]: > 100 µM (inactive) | GI50 [36]: 43 µM (inactive) | GI50 [37]: > 100 µM (inactive) | GI50 [38]: 38.3 µM (inactive) | GI50 [39]: > 100 µM (inactive) | GI50 [40]: > 100 µM (inactive) | GI50 [41]: 55.8 µM (inactive) | GI50 [42]: > 100 µM (inactive) | GI50 [43]: > 100 µM (inactive) | GI50 [44]: > 100 µM (inactive) | GI50 [45]: 62.7 µM (inactive) | GI50 [46]: > 100 µM (inactive) | GI50 [47]: > 100 µM | GI50 [48]: > 100 µM (inactive) | GI50 [49]: > 100 µM (inactive) | GI50 [50]: 21 µM (inactive) | GI50 [51]: 45.6 µM (inactive) | GI50 [52]: 17.7 µM (inactive) | GI50 [53]: > 100 µM (inactive) | GI50 [54]: 60.1 µM (inactive) | GI50 [55]: > 100 µM (inactive) | GI50 [56]: 77.8 µM (inactive)

CCN(CCCN(CC)C(=O)N[C@@H](Cc1ccccc1)C(=O)NC)C(=O)N[C@@H](Cc1ccccc1)C(=O)NC
GI50 [1]: > 100 µM (inactive) | GI50 [2]: > 100 µM (inactive) | GI50 [57]: > 100 µM (inactive) | GI50 [4]: > 100 µM (inactive) | GI50 [6]: > 100 µM (inactive) | GI50 [7]: > 100 µM (inactive) | GI50 [8]: > 100 µM (inactive) | GI50 [9]: > 100 µM (inactive) | GI50 [10]: > 100 µM (inactive) | GI50 [11]: > 100 µM (inactive) | GI50 [12]: > 100 µM (inactive) | GI50 [13]: > 100 µM (inactive) | GI50 [15]: > 100 µM (inactive) | GI50 [16]: > 100 µM (inactive) | GI50 [18]: > 100 µM (inactive) | GI50 [19]: > 100 µM (inactive) | GI50 [20]: > 100 µM (inactive) | GI50 [21]: > 100 µM (inactive) | GI50 [22]: > 100 µM (inactive) | GI50 [23]: > 100 µM (inactive) | GI50 [24]: > 100 µM (inactive) | GI50 [25]: > 100 µM (inactive) | GI50 [28]: > 100 µM (inactive) | GI50 [30]: > 100 µM (inactive) | GI50 [31]: > 100 µM (inactive) | GI50 [32]: > 100 µM (inactive) | GI50 [58]: > 100 µM (inactive) | GI50 [34]: > 100 µM (inactive) | GI50 [35]: > 100 µM (inactive) | GI50 [36]: > 100 µM (inactive) | GI50 [37]: > 100 µM (inactive) | GI50 [38]: > 100 µM (inactive) | GI50 [39]: > 100 µM (inactive) | GI50 [40]: > 100 µM (inactive) | GI50 [41]: > 100 µM (inactive) | GI50 [42]: > 100 µM (inactive) | GI50 [44]: > 100 µM (inactive) | GI50 [45]: > 100 µM (inactive) | GI50 [46]: > 100 µM (inactive) | GI50 [47]: > 100 µM | GI50 [48]: > 100 µM (inactive) | GI50 [49]: > 100 µM (inactive) | GI50 [50]: > 100 µM (inactive) | GI50 [51]: > 100 µM (inactive) | GI50 [52]: > 100 µM (inactive) | GI50 [59]: > 100 µM (inactive) | GI50 [53]: > 100 µM (inactive) | GI50 [54]: > 100 µM (inactive) | GI50 [55]: > 100 µM (inactive) | GI50 [56]: > 100 µM (inactive)

O=C1c2ccccc2C(=O)c2c(NC(=O)C3CC3)ccc(NC(=O)C3CC3)c21
GI50 [1]: > 100 µM (inactive) | GI50 [2]: > 100 µM (inactive) | GI50 [57]: > 100 µM (inactive) | GI50 [4]: > 100 µM (inactive) | GI50 [5]: 83.2 µM (inactive) | GI50 [6]: > 100 µM (inactive) | GI50 [7]: > 100 µM (inactive) | GI50 [8]: > 100 µM (inactive) | GI50 [9]: > 100 µM (inactive) | GI50 [10]: > 100 µM (inactive) | GI50 [11]: > 100 µM (inactive) | GI50 [12]: 65.8 µM (inactive) | GI50 [13]: 26.9 µM (inactive) | GI50 [14]: > 100 µM (inactive) | GI50 [16]: > 100 µM (inactive) | GI50 [17]: > 100 µM (inactive) | GI50 [19]: 33.4 µM (inactive) | GI50 [20]: > 100 µM (inactive) | GI50 [21]: > 100 µM (inactive) | GI50 [22]: > 100 µM (inactive) | GI50 [23]: > 100 µM (inactive) | GI50 [24]: > 100 µM (inactive) | GI50 [26]: > 100 µM (inactive) | GI50 [27]: > 100 µM (inactive) | GI50 [30]: > 100 µM (inactive) | GI50 [31]: 58.2 µM (inactive) | GI50 [32]: > 100 µM (inactive) | GI50 [33]: > 100 µM (inactive) | GI50 [34]: > 100 µM (inactive) | GI50 [35]: > 100 µM (inactive) | GI50 [36]: > 100 µM (inactive) | GI50 [37]: 61.2 µM (inactive) | GI50 [38]: > 100 µM (inactive) | GI50 [39]: 91.2 µM (inactive) | GI50 [41]: > 100 µM (inactive) | GI50 [42]: > 100 µM (inactive) | GI50 [43]: 95.7 µM (inactive) | GI50 [44]: > 100 µM (inactive) | GI50 [45]: 61.7 µM (inactive) | GI50 [47]: > 100 µM | GI50 [48]: > 100 µM (inactive) | GI50 [49]: > 100 µM (inactive) | GI50 [51]: > 100 µM (inactive) | GI50 [52]: > 100 µM (inactive) | GI50 [59]: > 100 µM (inactive) | GI50 [53]: > 100 µM (inactive) | GI50 [55]: > 100 µM (inactive) | GI50 [56]: > 100 µM (inactive)

From ChEMBL document CHEMBL1201862, “PubChem BioAssay data set” (2004)
